Patent publication US20200146989A1, “A CO-AMORPHOUS FORM OF A SUBSTANCE AND A DIPEPTIDE” (University of Copenhagen, priority 2016, published 2020)
Several values for one entry are separate records, joined by “and”; a condition that tells them apart may be missing. Equal entries are not always repeated.

Tests used:
Assay type in all cases: physicochemical
[1] = Ease of amorphization by ball milling, checked by XRPD; design: key to Success in amorphization (yes/no): yes=y; no=n
Experimental: Amorphous and co-amorphous systems of the pure drugs and the binary and ternary mixtures with the amino acids or ASPA were prepared by vibrational ball milling.
The samples were prepared by placing a total amount of 500 mg of either the pure crystalline drug, mixtures of drug with one or two amino acids (molar ratio of either 1:1 or 1:1:1) or drug-dipeptides (1:1 molar ratio) in 25 ml milling jars containing two 12 mm stainless steel balls. The samples were milled at 30 Hz up to 180 min in an oscillatory ball mill (Mixer Mill MM400, Retch GmbH & Co, Haan, Germany) placed in a cooling room at 6° C.
(§1) The X-ray powder diffraction (XRPD) analysis was performed using a X'Pert Pro X-ray Diffractometer (PANalytical, Almelo, The Netherlands) using a Cu Kα radiation source (λ=1.54187 Å). An acceleration voltage and current of 45 kV and 40 mA were used. Samples were scanned in reflection mode between 5° and 35° 2θ with a scan speed of 0.0673° 2θ/s and a step size of 0.0262°. Data were collected and analyzed using the software X'Pert Data Collector (PANalytical, Almelo, The Netherlands). Samples were filled onto aluminum sample holders and gently compressed with a spatula, in order to contain a compacted and smooth surface.

[2] = Intrinsic dissolution rate (IDR) of compressed disks; conditions: 0.01M phosphate buffer pH 7.2, 37° C., 100 rpm, triplicate
Experimental: For the intrinsic dissolution rate (IDR) studies, 150 mg of powder was compressed directly into stainless steel cylinders, which served as IDR sample holders, with a hydraulic press (Hydraulische Presse Model IXB-102-9, PerkinElmer, Ueberlingen, Germany). Disks of pure crystalline drug, pure amorphous drug, and the co-amorphous blends of respectively drug-AA, drug-AA-AA and drug-dipeptide, shown in table 1.1, were compressed at different compaction pressures between 124.9 MPa and 249.7 MPa for 60 seconds in order to obtain a stable compact with smooth surface.
For the dissolution experiment an Erweka DT70 dissolution tester (Erweka GmbH, Heusenstamm, Germany) was used. […] The samples were analyzed with the respective HPLC method for the different drugs as described below. […]
The IDR was calculated as the drug release per accessibility area (μg cm^−2). For this purpose the drug concentration at the different time points was analyzed with HPLC (μg mL-^1), multiplied with 900 ml and divided with the accessible surface area of the drug.
For the pure drugs the accessible area, was set to be the surface area of the compact (0.7854 cm^2). […] The corrected accessible surface area was calculated based on the accessibility area within the mixture. […] From the calculated drug volume and the total volume of the tablet the relative drug volume percentage could be determined. […]

[3] = Physical stability of amorphous and co-amorphous samples on dry storage, recrystallization detected by XRPD; conditions: for Stability at 40° C. / Stability at room temperature: dry conditions, amorphous halo in XRPD
Experimental: as §1, with “a X'Pert Pro X-ray” left out, “Å).” for “Å).”, “surface. The pure amorphous drugs and co-amorphous mixtures were stored under dry conditions in desiccators at room temperature and 40° C.” for “surface.”

[4] = Powder dissolution, miniaturized USP 2 set-up; conditions: 0.1 M phosphate buffer pH 6.8, 37° C.; for MEB concentration released after 20 min of dissolution: 100 rpm, 5 mg MEB in 100 ml
Experimental: Powder dissolution studies were performed in an ERWEKA DT70 dissolution tester (Heusenstamm, Germany) equipped with a custom-made miniaturized dissolution set-up described earlier [DOI: 10.1208/s12249-008-9161-6]. This set-up is a down-scaled version (the vessel size is 250 mL) of USP apparatus 2, and the hydrodynamics is essentially similar to the standard USP 2 apparatus. Pure drugs, drug-ASPA mixtures or drug-dipeptide mixtures containing an equivalent amount of 5 mg of MEB or 5 mg of TAD in total were placed in 100 ml of 0.1 M phosphate buffer (pH 6.8, 37° C.) and stirred at a rotation speed of 100 rpm. At predetermined time points (2, 5, 10, 20, 30, 60, 120, 180, 240, 300 and 360 min), 1 ml sample was withdrawn and immediately replaced with pre-warmed dissolution buffer. The obtained samples were quantified after filtration (0.45 μm) with the respective HPLC method for the different drugs as described below. All dissolution experiments were conducted in triplicate.
All samples from the dissolution studies were analyzed on a Dionex (Germering, Germany) HPLC system equipped with a P680 pump, an ASI-100 automated sample injector and a PDA 100 photodiode array detector was used. A reverse-phase Kinetex C18 ([…]×4.6 mm, 5 μm) column with UV detection at 240 nm for CRV, 264 nm for IND, 312 nm for MEB and 285 nm for TAD was used, with a constant flow rate of 1.0 ml min^−1 and an isocratic solvent system. The mobile phases (MP) consisted of 50% (V/V) phosphoric acid (pH=2) and 50% MeOH for the analysis of CRV, 25% (V/V) phosphoric acid (pH=2) and 75% MeOH for the analysis of IND, 47% (V/V) of 0.05 M KH2PO4, 20% (V/V) of acetonitrile and 33% (V/V) methanol for the analysis of MEB, 60% (V/V) 0.0724 M pH 6.8 phosphate buffer and 40% (V/V) of acetonitrile for the analysis of TAD, respectively. Chromatograms were analyzed by using Chromeleon Version 7.1.3.2425 software. […]

For `COc1ccccc1OCCNCC(O)COc1cccc2[nH]c3ccccc3c12` (centres unmarked) [CRV, Carvedilol], the “Success in amorphization (yes/no)” value ([1]; IND and CRV samples, ball milled 90 or 180 min, XRPD) was “y” and the “intrinsic dissolution rate (IDR)” value ([2]; listed as amorphous CRV) was 0.0086±0.001 mg cm^−2 min^−1 and 0.009±0.001 mg cm^−2 min^−1.
With `COc1ccc2c(c1)c(CC(=O)O)c(C)n2C(=O)c1ccc(Cl)cc1` [IND, Indomethacin] the “Stability at 40° C.” value ([3]; IND and CRV) was less than 7 days, the “Stability at room temperature” value ([3]; IND and CRV) was less than 7 days and the “recrystallization peaks in the XRPD diffractograms within” value ([3]; storage at room temperature and 40° C. dry conditions, temperature not split in the sentence) was no more than 7 days. For the same compound, the “intrinsic dissolution rate (IDR)” value [2] was 0.128±0.004 mg cm^−2 min^−1.
With `COC(=O)Nc1nc2ccc(C(=O)c3ccccc3)cc2[nH]1` [MEB, Mebendazole] the “Milling time fully amorphization” value ([1]; MEB samples, XRPD at 30, 60, 90 and 180 min of ball milling) was 60 min, the “Success in amorphization (yes/no)” value ([1]; MEB samples, ball milled, XRPD at 30, 60, 90 and 180 min) was “y” and the “Stability at room temperature” value ([3]; MEB and TAD) was greater than 2 months. The “MEB concentration released after 20 min of dissolution” value ([4]; listed as amorphous MEB) was 0.99 µg/mL and the “concentration after 240 min of dissolution as fold of crystalline MEB” value ([4]; 240 min) was “approx. 4.3 fold”.
With `CN1CC(=O)N2[C@H](c3ccc4c(c3)OCO4)c3[nH]c4ccccc4c3C[C@@H]2C1=O` [TAD, Tadalafil] the “Stability at 40° C.” value ([3]; MEB and TAD) was greater than 2 months and the “Stability at room temperature” value ([3]; MEB and TAD) was greater than 2 months.
For `COC(=O)Nc1nc2ccc(C(=O)c3ccccc3)cc2[nH]1` [crystalline MEB, Mebendazole], the “MEB concentration released after 20 min of dissolution” value [4] was 0.23 µg/mL.
